According to PMC5565192, “Larrea tridentata: A novel source for anti-parasitic agents active against Entamoeba histolytica, Giardia lamblia and Naegleria fowleri” (PLoS Neglected Tropical Diseases, 2017):
Like-named read-outs stand apart in the source and are kept apart here.

What was measured:
[1] = test system: G. lamblia WB trophozoites; assay: Parasite assay, CellTiter-Glo EC50 dose response, G. lamblia trophozoites; format: cell-based, Giardia lamblia; conditions: for loss of activity compared to 3, G. lamblia: SAR comparison with compound 3
Protocol: (§1) Trophozoites of E. histolytica HM1: IMSS and G. lamblia WB strains were axenically maintained in TYI-S-33 medium supplemented with penicillin (100 U/ml), streptomycin (100 μg/ml). Trophozoites of N. fowleri strain KUL were axenically cultured in Nelson’s medium supplemented with 10% FBS at 37°C [45]. All experiments were performed using trophozoites harvested during the logarithmic phase of growth. Four solvent partitioned fractions of an aqueous methanolic extract of L. tridentata and compounds 1–9 were screened for activity against E. histolytica, G. lamblia, and N. fowleri. For primary screening, the positive control for E. histolytica and G. lamblia was 5 μg/mL of metronidazole (Sigma-Aldrich) and 46 μg/mL of amphotericin B for N. fowleri (Sigma-Aldrich). Test samples were diluted to 10 mg/mL of extracts, HPLC fractions, and pure compounds in DMSO. Finally, 0.5 μL of diluted sample was transferred to white, solid bottom tissue culture 96-well plates (E&K Scientific) followed by addition of 99.5 μL trophozoites (5,000 E. histolytica and G. lamblia, and 10,000 N. fowleri) in TYI-S-33 medium or Nelson’s medium. The final concentration for test compounds was 50 μg/mL and 0.5% DMSO, which was the negative control and compound vehicle that we have shown has no effect the growth rate of trophozoites. Assay plates were incubated for 48 h at 37°C. E. histolytica and G. lamblia plates were kept in the GasPak EZ Anaerobe Gas Generating Pouch System (VWR) to maintain anaerobic condition throughout the incubation period. Screening was performed in duplicate using the CellTiter-Glo assay (Promega) and luminescence was measured using an EnVision plate reader (PerkinElmer).
(§2) The antiparasitic activity of 1–6 and 9 were confirmed by EC50 dose response experiments, using the CellTiter-Glo assay, conducted in triplicate over a concentration range from 5-to-700 μM against trophozoites (Table 3). Miltefosine and metronidazole, current drugs for the treatment of PAM and amebiasis and giardiasis were also tested in triplicate as positive controls for EC50 determination (Table 3). Dose response curves including standard deviation (SD) calculation were processed using GraphPad Prism software 5.0. Percent inhibition relative to maximum and minimum reference signal controls was calculated using the formula: % Inhibition = [(mean of Maximum Signal Reference Control—Experimental Value)/(mean of Maximum Signal Reference Control—mean of Minimum Signal Reference Control)] × 100.

[2] = test system: N. fowleri strain KUL trophozoites; assay: Parasite assay, CellTiter-Glo EC50 dose response, N. fowleri trophozoites; format: cell-based, Naegleria fowleri
Protocol: as §1, §2

[3] = test system: E. histolytica HM1: IMSS trophozoites; assay: Parasite assay, CellTiter-Glo EC50 dose response, E. histolytica trophozoites; format: cell-based, Entamoeba histolytica; conditions: for EC50: 48 h
Protocol: as §1, §2

HUVEC-TERT2 cell line = assay: HUVEC cell cytotoxicity (CellTiter-Glo, 48 h); format: cell-based, human; conditions: for fold less toxic to human cells compared to N. fowleri: HUVEC EC50 versus N. fowleri EC50, P<0.0001; for EC50: Homo sapiens, HUVEC, 48 h, CellTiter-Glo, read-out: EC50 inhibition of HUVEC cell viability
Protocol: The HUVEC-TERT2 cell line was purchased from Evercyte GmbH (Vienna, Austria) and cultured and maintained in endothelial cell basal medium (Lonza) as described previously. Briefly, cells were seeded into a white 384-well solid bottom plate (Nunc, ThermoFisher) at a density of 1000 cells/well in 39 μL of media using a Janus liquid handler (PerkinElmer). Serial dilutions using 1 μL of compound 1 and 2 at varying concentrations were dispensed into each well in triplicate. After 48 h incubation, 40 μL of CellTiter-Glo reagent (Promega) was added into each well. The contents were mixed for 2 min on a microplate shaker to induce cell lysis and further incubated at room temperature for 10 min to stabilize the luminescent signal. Luminescence was measured with an EnVision plate reader (PerkinElmer) and %inhibition calculations were performed using the following formula for single-point normalization: %Inhibition = (1-Raw Sample Value/Mean of DMSO Signal Reference Value) × 100. Dose response curves including EC50 calculations were processed using GraphPad Prism software.

[4] = test system: N. fowleri cysteine protease; assay: Cysteine protease activity assay in N. fowleri crude lysate (Z-Phe-Arg-AMC); format: biochemical, Naegleria fowleri; conditions: at 1.875 μM, total crude lysate of N. fowleri
Protocol: To prepare the cell lysate, N. fowleri trophozoites were removed from the culture flask surface by incubating in an ice bath for 10 min, centrifuged at 300 g for 10 min, and washed twice with PBS (pH 7.2). The cells were disrupted by four cycles of freeze thawing in PBS [51]. Protein concentration was quantified by the method of Bradford (Bio-Rad). The activity of the cysteine protease present in the crude extract after incubating in presence and absence of different concentrations of compounds 1 and 2 was assayed by the liberation of the fluorescent leaving group, 7-amino-4-methyl coumarin (AMC), from the peptide substrate Z–Phe–Arg–AMC (40 μM) (where Z is benzyloxycarbonyl, R&D Systems). The assay was performed at 25°C in an automated microtiter plate spectrofluorometer (EnVision, PerkinElmer) with excitation wavelength at 355 nm and emission wavelength at 460 nm. Enzyme samples were added to the reactivation buffer (10 mM Tris, 5 mM EDTA, 50 mM NaCl, pH 7.4, 10 mM DTT), and preincubated for 20 min at 37°C prior to the hydrolysis of substrate. The rate of substrate hydrolysis at ambient temperature was determined from the rate of increase of fluorescence, monitored on a continuously recording spectrofluorometer and measured as RFU/min/μg protein.

[5] = test system: E. histolytica, G. lamblia, and N. fowleri trophozoites; assay: Antiparasitic activity, statements for all three pathogens together (CellTiter-Glo); format: cell-based; conditions: for antiparasitic activity against the three pathogens (in words): E. histolytica, N. fowleri trophozoites
Protocol: as §1, §2

[6] = trophozoites, 48 h, minimum n = 3
[7] = trophozoites, 48 h, minimum n = 3, read-out: N. fowleri EC50
[8] = Giardia duodenalis, trophozoites, 48 h, minimum n = 3, read-out: G. lamblia EC50
[9] = Giardia duodenalis, trophozoites, 48 h, minimum n = 3, read-out: G. lamblia pEC50 ± SE (converted)
[10] = Naegleria fowleri, 48 h, trophozoites, 48 h, minimum n = 3, read-out: N. fowleri EC50
[11] = Naegleria fowleri, 48 h, trophozoites, 48 h, minimum n = 3, read-out: N. fowleri pEC50 ± SE (converted)
[12] = Entamoeba histolytica, trophozoites, minimum n = 3, read-out: E. histolytica EC50
[13] = Entamoeba histolytica, trophozoites, minimum n = 3, read-out: E. histolytica pEC50 ± SE (converted)
[14] = Giardia duodenalis, 48 h, read-out: G. lamblia EC50
[15] = Naegleria fowleri, 48 h, read-out: N. fowleri EC50
[16] = Entamoeba histolytica, read-out: E. histolytica EC50

Compound | EC50 [1, 8] | EC50 [1, 9] | EC50 [2, 10] | EC50 [2, 11] | EC50 [3, 12] | EC50 [3, 13] | antiparasitic activity against the three pathogens (in words) [5] | also measured
3-Methoxy-6, 7, 4’-trihydroxyflavonol [Compound 9] | – | – | – | – | – | – | – | G. lamblia pEC50 ± SE [1, 6]: 3.8 ± 0.02; EC50 ([1]; trophozoites, 48 h, minimum n = 3, read-out: G. lamblia EC50): 153 µM; N. fowleri pEC50 ± SE [2, 6]: 3.6 ± 0.02; EC50 [2, 7]: 235 µM; EC50 ([3]; trophozoites, minimum n = 3, read-out: E. histolytica EC50): > 166 µM
C[C@H](Cc1ccc(O)c(O)c1)[C@@H](C)Cc1ccc(O)c(O)c1 [Compound 1, nordihydroguairetic acid] | 36 µM | 39.8 µM | 36 µM | 39.8 µM | 103 µM | 100 µM | – | fold less toxic to human cells compared to N. fowleri (HUVEC-TERT2 cell line): 2.4 fold; EC50 (HUVEC-TERT2 cell line): 86 µM; EC50 [2, 7]: 37 µM; inhibition of cysteine protease activity [4]: ~50%
COc1cc(C[C@@H](C)[C@@H](C)Cc2ccc(O)c(O)c2)ccc1O [Compound 2, 3’-O-methylnordihydroguairetic acid] | 38 µM | 39.8 µM | 38 µM | 39.8 µM | 171 µM | 158 µM | – | fold less toxic to human cells compared to N. fowleri (HUVEC-TERT2 cell line): 1.6 fold; EC50 (HUVEC-TERT2 cell line): 59 µM; inhibition of cysteine protease activity [4]: ~50%
C[C@H]1[C@H](c2ccc(O)cc2)c2cc(O)c(O)cc2C[C@H]1C [Compound 3, Nor-3’-demethoxyisoguaiacin] | 49 µM | 50.1 µM | 73 µM | 79.4 µM | 94 µM | 100 µM | – | –
COc1cc([C@@H]2c3cc(O)c(O)cc3C[C@@H](C)[C@H]2C)ccc1O [Compound 4, Nor-isoguaicin] | 74 µM | 79.4 µM | 75 µM | 79.4 µM | 83 µM | 79.4 µM | – | EC50 ([5]; span over E. histolytica, N. fowleri, read-out: EC50 values against all three pathogens): 74 to 83 µM; loss of activity compared to 3, G. lamblia [1]: ~ 2 fold
COc1cc2c(cc1O)C[C@@H](C)[C@@H](C)[C@@H]2c1ccc(O)cc1 [Compound 5, 3’-Demethoxyisoguaiacin] | 188 µM | 200 µM | 155 µM | 158 µM | 236 µM | 251 µM | comparatively weak activity | loss of activity compared to 3, G. lamblia [1]: 4 fold; loss of activity compared to 3, N. fowleri ([2]; SAR comparison with compound 3): ~ 2 fold; loss of activity compared to 3, E. histolytica ([3]; SAR comparison with compound 3): ~ 3 fold
C[C@H]1[C@H](c2ccc(O)c(O)c2)c2cc(O)c(O)cc2C[C@H]1C [Compound 6, 6,3'-Di-O-demethylisoguaiacin] | 96 µM | 100 µM | 150 µM | 158 µM | 146 µM | 158 µM | comparatively weak activity | –
C[C@@H]1[C@@H](C)[C@H](c2ccc(O)c(O)c2)O[C@H]1c1ccc(O)cc1 [Compound 7, 3-hydroxy-4-epi-larreatricin] | – | – | – | – | – | – | no antiparasitic activity | EC50 [1, 14]: > 166 µM; EC50 [2, 15]: > 166 µM; EC50 [3, 16]: > 166 µM
C[C@@H]1[C@H](C)[C@H](c2ccc(O)cc2)O[C@H]1c1ccc(O)c(O)c1 [Compound 8, (7R, 7’R)-7, 7’-bis(4’, 3,4-trihydroxyphenyl)-(8R, 8’S)-8, 8’-dimethyltetrahydrofuran] | – | – | – | – | – | – | no antiparasitic activity | EC50 [1, 14]: > 166 µM; EC50 [2, 15]: > 166 µM; EC50 [3, 16]: > 166 µM
Cc1ncc([N+](=O)[O-])n1CCO [Metronidazole, reference compound] | 6.4 µM | 6.31 µM | – | – | 5 µM | 5.01 µM | – | –
CCCCCCCCCCCCCCCCOP(=O)([O-])OCC[N+](C)(C)C [Miltefosine, reference compound] | – | – | 54.5 µM | 50.1 µM | – | – | – | –
